Measurements taken from US7494784B2, “Method of treating cell-migration conditions or diseases” (Wisconsin Alumni Research Foundation, priority 2003, dated 2009).

Key:
Src family kinases = assay: Tyrosine phosphorylation of PIPKIγ661 in cells with Src-specific inhibitor; format: cell-based
From the text: In the FAK signaling pathway, Src family tyrosine kinases bind to and are activated by FAK, playing a fundamental role in focal adhesion organization (Parsons, et al. (2000) Oncogene 19:5606-5613; Cobb, et al (1994) Mol. Cell. Biol. 14:147-155; Schaller, et al. (1994) Mol. Cell. Biol. 14:1680-1688; Schaller, et al. (999) Mol. Cell. Biol. 10:3489-3505). To determine if Src family kinases phosphorylate PIPKIγ661, Src-specific inhibitor PP2 was employed. […] PIPKIγTyr^649->Phe is efficiently phosphorylated by c-Src.
HEK 293T cells and NRK cells were cultured in Dulbecco's modified Eagle's medium (DMEM) (Mediatech, Inc., Herndon, Va.) supplemented with 10% fetal bovine serum (INVITROGEN™, Carlsbad, Calif.) and antibiotics. NRK cells were transfected using FUGENE™ 6 (Roche, Indianapolis, Ind.) according to manufacturer's instructions for 24 hours. […]
Immunoprecipitation was performed using standard methods (Zhang, et al. (1997) J. Biol. Chem. 272:17756-17761). […] The immunocomplexes were washed with Buffer A, separated by SDS-polyacrylamide gel electrophoresis (SDS-PAGE), and analyzed as indicated. […]

GST-talin head = target: T1, GST-talin head (Homo sapiens, UniProt Q9Y490); assay: GST pull-down competition: displacement of His-β1-integrin tail from GST-talin head; format: binding; settings: for binding affinity for talin compared with unphosphorylated peptide PN: binding assay between talin and integrin (FIG. 2); for binding affinity to talin of phosphorylated β1-integrin peptides: competing integrin tail binding from talin
T1 construct: Human talin1 head region (1-435) was cloned from HEK293T cells by PCR and subcloned into pET42; made in house; host or cells: E. coli BL21(DE3)
Protocol: Talin interactions were assessed by GST pull-down using recombinant GST-talin head, His-PIPKIγ635 C-terminus, His-PIPKIγ661 wild-type or Tyr to Phe mutant C-terminus, and His-β1-integrin tail. […] Peptides containing the PIPKIγ661/talin binding sequence (Di Paolo, et al. (2002) supra) were designed to include phosphorylated Tyr^644, phosphorylated Tyr^649, and dual phosphorylated Tyr^644 and Tyr^649.
In a screening assay to identify an agent which modulates the activity of PIPKIγ661 as defined by the binding interaction between PIPKIγ661 and talin, the step of detecting the activity of PIPKIγ661 is carried out by detecting and measuring the binding of PIPKIγ661 to talin. The detection and measurement of this binding interaction will be dependent on the type of screening assay performed and the labels used. Such screening assays to detect binding between two proteins in the presence of a test agent are well-known in the art. […] An exemplary binding assay of this type was conducted using PIPKIγ661 peptides of the sequence Cys-Asp-Glu-Arg-Scr-[…](peptide designated PN; SEQ ID NO:12) which are encompassed within the C-terminal 25 amino acid residues of PIPKIγ661 and interact with talin at the same site as integrin. […] Fluorescent probes may be linked to the cysteine residue using conventional thiol or thiolester linkages. […] In this assay, an agent which is an inhibitor of the interaction between PIPKIγ661 and talin blocks binding of a peptide of SEQ ID NO:12 and changes the fluorescent emission anisotropy as compared to a control (e.g., binding in the absence of the inhibitor).
(§1) Purified GST-talin head proteins were incubated with PIPKIγ661 tails or β1-integrin tail, together with Glutathione SEPHAROSE™ 4 Fast Flow (Amersham Biosciences, Piscataway, N.J.), in Buffer B (PBS, 0.2% NP-40, 2 mM DTT) at 4° C. for 4 hours. The beads were washed three times with Buffer B and analyzed by western blot. For competition assays, GST-talin head proteins were incubated with peptides or competing proteins for 2 hours, then the binding proteins were added and the mixtures were incubated for another 4 hours.

GST-talin Arg^358->Gln = GST-talin Arg^358->Gln (Homo sapiens, UniProt Q9Y490, R358Q); settings: peptide competing His-PIPKIγ661 binding
From the text: (§2) From structural studies of integrin binding to talin, a conserved tryptophan in β-integrin tail is positioned near two basic residues, Lys^357 and Arg^358 of talin F3 lobe (Garcia-Alvarez, et al. (2003) supra). […] The role of PIPKIγ661 phosphorylation was examined by using phosphorylated peptides to compete His-PIPKIγ661 binding to wild-type or mutant GST-talin. […] To further analyze this, β1-integrin peptides phosphorylated at Thr of Trp-Asp-Thr and at Tyr of Asn-Pro-Ile-Tyr (SEQ ID NO: 1) were synthesized and used to compete integrin tail binding from talin.
(§3) Human talin1 head region (1-435) was cloned from HEK293T cells by PCR and subcloned into pET42. The C-terminal truncated or site-directed mutagenesis for the PIPKIγ661 mutants or talin head was performed using PCR-primer overlap extension with mutagenic primers. PIPKIγ661 mutants were then subcloned into pcDNA3.1 and talin head mutants were subcloned into pET42. His-tagged mouse β1-integrin tail was made using well-established methods (Pfaff, et al. (1998) supra) and subcloned into pET28. The C-terminus of PIPKIγ635 (439-635), PIPKIγ661 (439-661), or the Tyr to Phe mutants of PIPKIγ661 were PCR amplified from the corresponding pcDNA3.1 constructs and subcloned into pET28. […] FAK, FAKTyr397Phe, kinase dead FAK and c-Src constructs were generated using well-known methods.
as §1

GST-talin Lys^357->Gln = GST-talin Lys^357->Gln (Homo sapiens, UniProt Q9Y490, K357Q); settings: peptide competing His-PIPKIγ661 binding
From the text: as §2, §3, §1

HEK293T cells = assay: Co-immunoprecipitation of talin with PIPKIγ661 from suspended HEK293T cells after stimulation; format: cell-based; settings: stimulated
Protocol: The association between PIPKIγ661 and talin was also regulated by adhesion to type I collagen. […] However, in suspended cells, the PIPKIγ661 association with talin was restored when cells were stimulated with lysophosphatidic acid (LPA) or platelet-derived growth factor (PDGF).
Immunoprecipitation was performed using standard methods (Zhang, et al. (1997) J. Biol. Chem. 272:17756-17761). Briefly, transfected HEK293T cells were harvested and lysed in Buffer A (50 mM Tris-HCl, pH 7.5, 150 mM NaCl, 0.1-1.0% NP-40, 5.0 mM NaF, 2 mM Na3VO4, 4 mM Na2P2O7, 1 mM EDTA, 0.1 mM EGTA, 1 mM phenylmethyl sulphonyl fluoride (PMSF), 10% glycerol), centrifuged and incubated with protein A—Sepharose and 5 μg anti-HA, anti-c-Myc, anti-Flag, anti-PIPKIγ or anti-talin antibody as indicated at 4° C. for 4 hours to overnight. The immunocomplexes were washed with Buffer A, separated by SDS-polyacrylamide gel electrophoresis (SDS-PAGE), and analyzed as indicated. For the kinase assay, the immunocomplexes were washed and stored in kinase buffer.
Transfected HEK 293T cells were washed with phosphate-buffer saline (PBS) and detached with 0.25% trypsin at 37° C. The cells were harvested and washed with PBS, and suspended in serum-free DMEM at 37° C. for 1 hour. […]

T1 sequence (Q9Y490 1-435): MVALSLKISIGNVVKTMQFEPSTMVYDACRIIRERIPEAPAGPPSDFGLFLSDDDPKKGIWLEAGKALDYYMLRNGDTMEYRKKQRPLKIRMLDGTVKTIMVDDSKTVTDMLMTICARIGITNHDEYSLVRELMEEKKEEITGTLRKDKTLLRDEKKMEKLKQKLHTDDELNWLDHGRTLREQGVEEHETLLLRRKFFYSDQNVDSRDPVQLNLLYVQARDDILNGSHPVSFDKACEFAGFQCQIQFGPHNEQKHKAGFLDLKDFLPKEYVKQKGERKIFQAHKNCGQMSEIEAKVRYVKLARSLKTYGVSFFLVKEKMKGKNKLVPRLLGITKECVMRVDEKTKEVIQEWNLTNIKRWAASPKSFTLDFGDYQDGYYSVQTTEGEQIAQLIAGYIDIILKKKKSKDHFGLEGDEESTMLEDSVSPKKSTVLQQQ
Sequence of GST-talin Arg^358->Gln (Q9Y490 1-435 R358Q): as the sequence (Q9Y490 1-435) above, with R358Q counted along it
Sequence of GST-talin Lys^357->Gln (Q9Y490 1-435 K357Q): as the sequence (Q9Y490 1-435) above, with K357Q counted along it

CC(C)(C)n1nc(-c2ccc(Cl)cc2)c2c(N)ncnc21 [PP2]
FAK-induced tyrosine phosphorylation of PIPKIγ661 (Src family kinases; FAK-induced): dramatically inhibited
basal tyrosine phosphorylation of PIPKIγ661 (Src family kinases; basal): dramatically inhibited

Cys-As-Glu-Arg-Ser-Trp-Val-*Tyr-Ser-Pro-Leu-His-Tyr-Ser-Ala-Arg [pY644]
binding affinity for talin compared with unphosphorylated peptide PN (GST-talin head): higher binding affinity
affinity of binding to talin mutant Arg^358->Gln (GST-talin Arg^358->Gln): loss of affinity
affinity of binding to talin mutant Lys^357->Gln (GST-talin Lys^357->Gln): retained high affinity binding

Cys-Asp-Glu-Arg-Ser-Trp-Val-*Tyr-Ser-Pro-Leu-His-*Tyr-Ser-Ala-Arg [pY644/649]
binding affinity for talin compared with unphosphorylated peptide PN (GST-talin head): higher binding affinity

Cys-Asp-Glu-Arg-Ser-Trp-Val-Tyr-Ser-Pro-Leu-His-*Tyr-Ser-Ala-Arg [pY649]
binding affinity for talin compared with unphosphorylated peptide PN (GST-talin head): higher binding affinity
affinity of binding to talin mutant Arg^358->Gln (GST-talin Arg^358->Gln): loss of affinity
affinity of binding to talin mutant Lys^357->Gln (GST-talin Lys^357->Gln): lower affinity

Cys-Asp-Glu-Arg-Ser-Trp-Val-Tyr-Ser-Pro-leu-His-Tyr-Ser-Ala-Arg [PN]
displacement of His-β1-integrin from GST-talin (GST-talin head; in vitro): poorly displaced

Cys-Met-Asn-Ala-Lys-Tp-Asp-Thr-Gly-Glu-Asn-Pro-Ile-*Tyr-Lys-Ser-Ala [β1 InpY]
binding affinity to talin of phosphorylated β1-integrin peptides (GST-talin head): lower binding affinity

Cys-Met-Asn-Ala-Lys-Trp-Asp-*T-Gly-Glu-Asn-Pro-Ile-Tyr-Lys-Ser-Ala [β1InpT]
binding affinity to talin of phosphorylated β1-integrin peptides (GST-talin head): did not increase binding affinity

PDGF
PIPKIγ661 association with talin (HEK293T cells): restored

lysophosphatidic acid [LPA, reference compound]
PIPKIγ661 association with talin (HEK293T cells): restored

B1: His-PIPKIγ661: recombinant His-tagged PIPKIγ661 wild-type C-terminus (439-661) (protein)
chain: MSSTVFRKSSSLKSSPSKKGRGALLAVKPLGPTAAFSASQIPSEREDVQYDLRGARSYPTLEDEGRPDLLPCTPPSFEEATTASIATTLSSTSLSIPERSPSDTSEQPRYRRRTQSSGQDGRPQEEPHAEDLQKITVQVEPVCGVGVVPKEEGAGVEVPPCGASAAASVEIDAASQASEPASQASDEEDAPSTDIYFPTDERSWVYSPLHYSARPASDGESDT
modifications: left off: small tags and cut ends
competition with His-β1-integrin for binding to GST-talin (GST-talin head; recombinant C-terminus proteins): competed with His-β1-integrin for binding to GST-talin in a dose-dependent manner
